One assay deals with Rhizoctonia solani. Put plainly: Protection of corn against infestation with Rhizoctonia solani (seed treatment, infested small-parcel fields). The following applies: corn seed treated with triticonazole 5 gai/100 kg alone; seedlings surviving (from 50) after sowing and emergence; untreated control 46. Type of assay: in vivo. Here is the method:
An isolate of Rhizoctonia solani originally isolated from maize was grown on potatoe dextrose agar (PDA) at 20° C. in the dark for 14 days. A vermiculite/maize meal/distilled water mixture (2.7:1:1) was autoclaved at 121° C. for 30 minutes in poly-ethylene “autoclave” bags. Once cool, the mixture was inoculated with 40×5 mm^2 agar disks cut from the Rhizoctonia solani cultures and mixed well. The inoculum bags were sealed and then incubated for 14 days at 22° C. with 16 hours light and 8 hours dark periods. Successful growth was checked by extracting granules of vermiculate and plating on PDA. Infested soil was prepared by mixing peat: sharp washed sand (3:1), removing any large peat clumps, adding maize meal mixture (9:1) and combining the two wells.
Corn seed was either treated with a slurry comprising triticonazole and/or prochloraz in water so that the amounts indicated below were applied per 100 kg of seed, or left untreated (control). Small-parcel fields (1×2 m) were infested with Rhizoctonia solani as described above. After sowing and emergence the number of seedlings surviving (from 50) was determined.

In another assay the test system is Pythium ultimum. Kind of assay: Protection of corn against infestation with Pythium ultimum (seed treatment, infested small-parcel fields). The following applies: corn seed treated with triticonazole 5 gai/100 kg alone; based on a weighted 0-5 infection scale; untreated control 70. Type of assay: in vivo. On the procedure: An isolate of Pythium ultimum originally isolated from maize was grown on potatoe dex-trose agar (PDA) at 22° C. in the dark for 14 days. A vermiculate/maize meal/distilled water mixture (2.7:1:1) was autoclaved at 121° C. for 30 minutes in polyethylene “auto-clave” bags. Once cool, the mixture was inoculated with 40×5 mm^2 agar disks cut from the Pyhtium ultimum cultures and mixed well. The inoculum bags were sealed and then incubated for 14 days at 21° C. for 14 days in the dark. Successful growth was checked by extracting granules of vermiculate and plating on PDA. Infested soil was prepared by mixing peat: sharp washed sand (3:1) removing any large peat clumps, adding maize meal mixture (40:60 v/v) and combining the two well.
Corn seed was either treated with a slurry comprising triticonazole and/or prochloraz in water so that the amounts indicated below were applied per 100 kg of seed, or left untreated (control). Small-parcel fields (1×2 m) were infested with Pythium ultimum as described above. After sowing and emergence the seedlings the disease index (based on a weighted 0-5 infection scale) was determined.

On to `CC1(C)CC/C(=C\c2ccc(Cl)cc2)C1(O)Cn1cncn1` (centres unmarked) [Triticonazole, (E)-5-(4-chlorbenzyliden)-2,2-dimethyl-1-(1H-1,2,4-triazol-1-ylmethyl)cyclopentanol], for which the “Percentage of plants surviving” value in the assay on Rhizoctonia solani is 36%. The compound also came in with a Disease index with Pythium ultimum of 71%.

Source of the values: patent US20100048396A1, “METHOD, USE AND AGENT FOR PROTECTING A PLANT AGAINST PYTHIUM AND RHIZOCTONIA” (priority 2007, published 2010).
